Measurements as given in the supplement of paper PMC10307832.

What was measured:
Test in all cases: relative viability (nuclei count vs DMSO), 5 days (fraction); higher = more cells survive
NCI-H1793 = tested on: NCI-H1793
Method in brief: (§1)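 Each reported value is a median over duplicate plates. It expresses relative viability: treated-well nuclei count divided by vehicle-well nuclei count. Lung cancer cell lines in 1536-well plates were dosed by pin tool a day after seeding, alone with one drug or with a fixed anchor-drug dose plus five library-drug doses (not always all listed) in √10 steps, and nuclei were counted after 5 days.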

NCI-H1944 = tested on: NCI-H1944
Method in brief: as §1

NCI-H2087 = tested on: NCI-H2087
Method in brief: as §1

NCI-H2170 = tested on: NCI-H2170
Method in brief: as §1

NCI-H2228 = tested on: NCI-H2228
Method in brief: as §1

NCI-H2405 = tested on: NCI-H2405
Method in brief: as §1

NCI-H3122 = tested on: NCI-H3122
Method in brief: as §1

NCI-H460 = tested on: NCI-H460
Method in brief: as §1

PC-3 [JPC-3] = tested on: PC-3 [JPC-3]
Method in brief: as §1

RERF-LC-KJ = tested on: RERF-LC-KJ
Method in brief: as §1

UMC-11 = tested on: UMC-11
Method in brief: as §1

Clc1ccc(Nc2nnc(Cc3ccncc3)c3ccccc23)cc1 [Vatalanib] + CCNC(=O)c1noc(-c2cc(C(C)C)c(O)cc2O)c1-c1ccc(CN2CCOCC2)cc1 [Luminespib] (partner 0.01 µM)
relative viability (NCI-H1793; first compound 0.1265 µM): 0.19
relative viability (NCI-H1793; first compound 0.4 µM): 0.192
relative viability (NCI-H1793; first compound 1.265 µM): 0.166
relative viability (NCI-H1793; first compound 4 µM): 0.2
relative viability (NCI-H1944; first compound 0.04 µM): 0.796
relative viability (NCI-H1944; first compound 0.1265 µM): 0.687
relative viability (NCI-H1944; first compound 0.4 µM): 0.845
relative viability (NCI-H1944; first compound 1.265 µM): 0.679
relative viability (NCI-H1944; first compound 4 µM): 0.752
relative viability (NCI-H2087; first compound 0.04 µM): 0.152
relative viability (NCI-H2087; first compound 0.1265 µM): 0.157
relative viability (NCI-H2087; first compound 0.4 µM): 0.184
relative viability (NCI-H2087; first compound 1.265 µM): 0.173
relative viability (NCI-H2087; first compound 4 µM): 0.159
relative viability (NCI-H2170; first compound 0.04 µM): 0.79
relative viability (NCI-H2170; first compound 0.1265 µM): 0.644
relative viability (NCI-H2170; first compound 0.4 µM): 0.715
relative viability (NCI-H2170; first compound 1.265 µM): 0.641
relative viability (NCI-H2170; first compound 4 µM): 0.692
relative viability (NCI-H2228; first compound 0.04 µM): 0.145
relative viability (NCI-H2228; first compound 0.1265 µM): 0.102
relative viability (NCI-H2228; first compound 0.4 µM): 0.163
relative viability (NCI-H2228; first compound 1.265 µM): 0.115
relative viability (NCI-H2228; first compound 4 µM): 0.157
relative viability (NCI-H2405; first compound 0.04 µM): 0.753
relative viability (NCI-H2405; first compound 0.1265 µM): 0.775
relative viability (NCI-H2405; first compound 1.265 µM): 0.594
relative viability (NCI-H2405; first compound 4 µM): 0.717
relative viability (NCI-H3122; first compound 0.04 µM): 0.0962
relative viability (NCI-H3122; first compound 0.1265 µM): 0.0894
relative viability (NCI-H3122; first compound 0.4 µM): 0.0775
relative viability (NCI-H3122; first compound 1.265 µM): 0.0975
relative viability (NCI-H3122; first compound 4 µM): 0.0766
relative viability (NCI-H460; first compound 0.04 µM): 0.0407
relative viability (NCI-H460; first compound 0.1265 µM): 0.0276
relative viability (NCI-H460; first compound 0.4 µM): 0.0374
relative viability (NCI-H460; first compound 1.265 µM): 0.0261
relative viability (NCI-H460; first compound 4 µM): 0.0364
relative viability (PC-3 [JPC-3]; first compound 0.04 µM): 0.697
relative viability (PC-3 [JPC-3]; first compound 0.1265 µM): 0.688
relative viability (PC-3 [JPC-3]; first compound 0.4 µM): 0.7
relative viability (PC-3 [JPC-3]; first compound 1.265 µM): 0.706
relative viability (PC-3 [JPC-3]; first compound 4 µM): 0.723
relative viability (RERF-LC-KJ; first compound 0.04 µM): 1.17
relative viability (RERF-LC-KJ; first compound 0.1265 µM): 1.22
relative viability (RERF-LC-KJ; first compound 0.4 µM): 1.2
relative viability (RERF-LC-KJ; first compound 1.265 µM): 1.05
relative viability (RERF-LC-KJ; first compound 4 µM): 1.07
relative viability (UMC-11; first compound 0.04 µM): 1.08
relative viability (UMC-11; first compound 0.1265 µM): 1.11
relative viability (UMC-11; first compound 0.4 µM): 0.996
relative viability (UMC-11; first compound 1.265 µM): 1.02
relative viability (UMC-11; first compound 4 µM): 1.01
